Assay results: PubChem BioAssay AID248 (DTP/NCI, 2004)
Values joined by “and” are separate entries in the source; they are usually repeats but may differ in a detail not shown here. Identical values can stand only once. Inconclusive results and toxic doses are left out. Rule as the data show it: active = T/C of 150% or more; inactive = T/C below 125%.

Tested on: L1210 leukemia ip in BDF1 mice, survival T/C
Test: NCI In Vivo Anticancer Drug Screen. Data for tumor model L1210 Leukemia (intraperitoneal) in B6D2F1 (BDF1) mice
Conditions: endpoint: mean survival time, higher = longer survival
Method: The antitumor activity of compounds was measured in mice bearing transplantable tumors. Survival or tumor size were measured and the results are expressed as the measurement made in the treated group (T) divided by the measurement made in the vehicle treated control group (C). The tumor model used in this assay is L1210 Leukemia (intraperitoneal) in B6D2F1 (BDF1) mice

[1] = dose: 50.0 mg/kg/injection, schedule: Q01DX009 (ip), vehicle: Klucel (hydroxypropylcellulose) (HPC)
[2] = dose: 100.0 mg/kg/injection, schedule: Q01DX009 (ip), vehicle: Klucel (hydroxypropylcellulose) (HPC)
[3] = dose: 200.0 mg/kg/injection, schedule: Q01DX009 (ip), vehicle: Klucel (hydroxypropylcellulose) (HPC)
[4] = dose: 100.0 mg/kg/injection, schedule: Q01DX001 (ip), vehicle: saline
[5] = dose: 200.0 mg/kg/injection, schedule: Q01DX001 (ip), vehicle: saline
[6] = dose: 400.0 mg/kg/injection, schedule: Q01DX001 (ip), vehicle: saline
[7] = dose: 100.0 mg/kg/injection, schedule: Q01DX009 (ip), vehicle: saline
[8] = dose: 100.0 mg/kg/injection, schedule: Q04DX003 (ip), vehicle: Klucel (hydroxypropylcellulose) (HPC)
[9] = dose: 200.0 mg/kg/injection, schedule: Q04DX003 (ip), vehicle: Klucel (hydroxypropylcellulose) (HPC)
[10] = dose: 400.0 mg/kg/injection, schedule: Q04DX003 (ip), vehicle: Klucel (hydroxypropylcellulose) (HPC)
[11] = dose: 50.0 mg/kg/injection, schedule: Q01DX001 (ip), vehicle: carboxymethylcellulose (CMC)
[12] = dose: 100.0 mg/kg/injection, schedule: Q01DX001 (ip), vehicle: carboxymethylcellulose (CMC)
[13] = dose: 200.0 mg/kg/injection, schedule: Q01DX001 (ip), vehicle: carboxymethylcellulose (CMC)
[14] = dose: 400.0 mg/kg/injection, schedule: Q01DX001 (ip), vehicle: carboxymethylcellulose (CMC)
[15] = dose: 5.0 mg/kg/injection, schedule: Q01DX001 (ip), vehicle: saline
[16] = dose: 10.0 mg/kg/injection, schedule: Q01DX001 (ip), vehicle: saline
[17] = dose: 20.0 mg/kg/injection, schedule: Q01DX001 (ip), vehicle: saline
[18] = dose: 25.0 mg/kg/injection, schedule: Q04DX003 (ip), vehicle: Klucel (hydroxypropylcellulose) (HPC)
[19] = dose: 50.0 mg/kg/injection, schedule: Q04DX003 (ip), vehicle: Klucel (hydroxypropylcellulose) (HPC)
[20] = dose: 100.0 mg/kg/injection, schedule: Q04DX002 (ip), vehicle: saline
[21] = dose: 200.0 mg/kg/injection, schedule: Q04DX002 (ip), vehicle: saline
[22] = dose: 400.0 mg/kg/injection, schedule: Q04DX002 (ip), vehicle: saline
[23] = dose: 400.0 mg/kg/injection, schedule: Q01DX009 (ip), vehicle: Klucel (hydroxypropylcellulose) (HPC)
[24] = dose: 100.0 mg/kg/injection, schedule: Q04DX003 (ip), vehicle: saline

Measured: T/C

COc1ccc([N+](=O)[O-])cc1NC(=O)Oc1ccc(F)cc1
inactive: [1] 100 % of control | [2] 92 % of control | [3] 96 % of control

COC(=O)CC(C)=S.[Ni]
inactive: dose: 50.0 mg/kg/injection, schedule: Q01DX001 (ip), vehicle: saline 98 % of control | [4] 98 % of control | [5] 98 % of control | [6] 117 % of control

CN(C)C(N)=S
inactive: [7] 91 % of control | dose: 200.0 mg/kg/injection, schedule: Q01DX009 (ip), vehicle: saline 100 % of control | dose: 400.0 mg/kg/injection, schedule: Q01DX009 (ip), vehicle: saline 100 % of control

O=C(NC(Cc1cn(Cc2ccccc2)cn1)C(=O)O)OCc1ccccc1 (stereo unspecified)
inactive: [8] 104 % of control | [9] 104 % of control | [10] 97 % of control

CCOC(=O)C(C)C(=O)c1ccccc1 (stereo unspecified)
inactive: [11] 107 % of control | [12] 102 % of control | [4] 95 % of control | dose: 100.0 mg/kg/injection, schedule: Q01DX009 (ip), vehicle: acetone 96 % of control | [13] 107 % of control | [5] 94 % of control | dose: 200.0 mg/kg/injection, schedule: Q01DX009 (ip), vehicle: acetone 93 % of control | [14] 107 % of control | [6] 94 % of control | dose: 400.0 mg/kg/injection, schedule: Q01DX009 (ip), vehicle: acetone 98 % of control

Cc1ccc(Cl)cc1NC(=O)c1ccccc1F
inactive: dose: 100.0 mg/kg/injection, schedule: Q04DX002 (ip), vehicle: Klucel (hydroxypropylcellulose) (HPC) 93 % of control | dose: 200.0 mg/kg/injection, schedule: Q04DX002 (ip), vehicle: Klucel (hydroxypropylcellulose) (HPC) 97 % of control | dose: 400.0 mg/kg/injection, schedule: Q04DX002 (ip), vehicle: Klucel (hydroxypropylcellulose) (HPC) 101 % of control

CC1(C)N=C(N)N=C(N)N1c1cccc(CCCCc2ccc(Cl)cc2Cl)c1
inactive: [15] 94 % of control | dose: 6.25 mg/kg/injection, schedule: Q04DX003 (ip), vehicle: saline with Tween-80 98 % of control | [16] 100 % of control | dose: 12.5 mg/kg/injection, schedule: Q04DX003 (ip), vehicle: saline with Tween-80 93 % of control | [17] 100 % of control | [18] 101 % of control | dose: 25.0 mg/kg/injection, schedule: Q04DX003 (ip), vehicle: saline with Tween-80 98 % of control | [19] 100 % of control | [8] 93 % of control

CCCCCCCCCCCCN(CCC(=O)O)S(=O)(=O)O
inactive: dose: 12.5 mg/kg/injection, schedule: Q04DX003 (ip), vehicle: Klucel (hydroxypropylcellulose) (HPC) 101 % of control | dose: 25.0 mg/kg/injection, schedule: Q01DX009 (ip), vehicle: Klucel (hydroxypropylcellulose) (HPC) 94 % of control | [18] 98 % of control | [1] 96 % of control | [19] 102 % of control | [2] 94 % of control | [8] 97 % of control

CC(=O)NC(CO)C(O)C(O)C(O)CO (stereo unspecified)
inactive: [20] 101 % of control and 89 % of control | [21] 93 % of control and 104 % of control | [22] 93 % of control | dose: 800.0 mg/kg/injection, schedule: Q04DX002 (ip), vehicle: saline 93 % of control

O=C1c2ccccc2-c2cc(F)cc(F)c21
inactive: [11] 104 % of control | [12] 102 % of control | [13] 102 % of control | [14] 102 % of control

NCC(S)c1ccc(Cl)cc1 (stereo unspecified)
inactive: dose: 12.5 mg/kg/injection, schedule: Q01DX009 (ip), vehicle: saline 114 % of control | dose: 25.0 mg/kg/injection, schedule: Q01DX009 (ip), vehicle: saline 101 % of control | dose: 50.0 mg/kg/injection, schedule: Q01DX009 (ip), vehicle: saline 97 % of control

c1ccc(P(CCP(CCP(c2ccccc2)c2ccccc2)c2ccccc2)CCP(c2ccccc2)c2ccccc2)cc1 (stereo unspecified)
inactive: dose: 100.0 mg/kg/injection, schedule: Q04DX002 (ip), vehicle: saline with Tween-80 90 % of control | [20] 101 % of control | [8] 95 % of control and 101 % of control | dose: 200.0 mg/kg/injection, schedule: Q04DX002 (ip), vehicle: saline with Tween-80 96 % of control | [21] 96 % of control | [9] 96 % of control and 102 % of control | dose: 400.0 mg/kg/injection, schedule: Q04DX002 (ip), vehicle: saline with Tween-80 93 % of control | [22] 101 % of control | [10] 93 % of control

COC1OC(CO)C(O)C1OS(C)(=O)=O (stereo unspecified)
inactive: [4] 101 % of control | [5] 103 % of control | [6] 101 % of control

CCOC(=O)/C=C/C(=O)OCC
inactive: [2] 100 % of control | [3] 103 % of control | [23] 108 % of control

CCOC(=O)CCc1c(C(=O)OCC)[nH]c(C)c1C(=O)C(=O)OC
inactive: [18] 101 % of control | [19] 98 % of control | dose: 100.0 mg/kg/injection, schedule: Q01DX001 (ip), vehicle: Klucel (hydroxypropylcellulose) (HPC) 95 % of control | [8] 103 % of control | dose: 200.0 mg/kg/injection, schedule: Q01DX001 (ip), vehicle: Klucel (hydroxypropylcellulose) (HPC) 93 % of control | dose: 400.0 mg/kg/injection, schedule: Q01DX001 (ip), vehicle: Klucel (hydroxypropylcellulose) (HPC) 90 % of control

CC(C)[P+](c1ccccc1)(c1ccccc1)c1ccccc1
inactive: [15] 108 % of control | [16] 111 % of control | dose: 16.25 mg/kg/injection, schedule: Q01DX009 (ip), vehicle: saline 100 % of control | [17] 118 % of control | dose: 25.0 mg/kg/injection, schedule: Q04DX003 (ip), vehicle: saline 113 % of control | dose: 40.0 mg/kg/injection, schedule: Q01DX001 (ip), vehicle: saline 113 % of control | dose: 50.0 mg/kg/injection, schedule: Q04DX003 (ip), vehicle: saline 103 % of control | dose: 65.0 mg/kg/injection, schedule: Q04DX003 (ip), vehicle: saline 107 % of control and 116 % of control | [4] 108 % of control | [24] 118 % of control | dose: 150.0 mg/kg/injection, schedule: Q04DX003 (ip), vehicle: saline 90 % of control

Cc1ccc(C)c(-n2c(C)nc3ccccc3c2=O)c1
inactive: [2] 86 % of control | [3] 100 % of control | [23] 91 % of control

Cc1cc(N(CCCl)CCCl)ccc1C=Nc1cc(Br)c(O)c(Br)c1
inactive: [12] 96 % of control | [13] 94 % of control | [14] 102 % of control

N=C(N)SCCCN
inactive: [7] 108 % of control | [24] 101 % of control | dose: 200.0 mg/kg/injection, schedule: Q04DX003 (ip), vehicle: saline 100 % of control

CC1=CCC2C(=O)C=CC(=O)C2C1 (stereo unspecified)
inactive: dose: 5.0 mg/kg/injection, schedule: Q01DX009 (ip), vehicle: Klucel (hydroxypropylcellulose) (HPC) 98 % of control | dose: 10.0 mg/kg/injection, schedule: Q01DX001 (ip), vehicle: carboxymethylcellulose (CMC) 107 % of control | dose: 10.0 mg/kg/injection, schedule: Q01DX009 (ip), vehicle: Klucel (hydroxypropylcellulose) (HPC) 89 % of control | dose: 20.0 mg/kg/injection, schedule: Q01DX001 (ip), vehicle: carboxymethylcellulose (CMC) 109 % of control | dose: 20.0 mg/kg/injection, schedule: Q01DX009 (ip), vehicle: Klucel (hydroxypropylcellulose) (HPC) 96 % of control | dose: 40.0 mg/kg/injection, schedule: Q01DX001 (ip), vehicle: carboxymethylcellulose (CMC) 107 % of control | dose: 80.0 mg/kg/injection, schedule: Q01DX001 (ip), vehicle: carboxymethylcellulose (CMC) 109 % of control
